# Measured values reported in patent US20240376097A1, “BCL-2 Inhibitor” (BeiGene Ltd., priority 2020, published 2024).
# Columns and labels:
# [1] = test system: RS4;11 (BCL-2 dependent acute lymphoblastic leukemia cell line); experiment: RS4;11 Cell Proliferation Assay; type: cell-based; conditions: Homo sapiens, RS4-11, RS4;11 cells, read-out: Cellular proliferation assay (IC50, nM) RS4
# Procedure, shortened: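 RS4;11 cells, 50,000 per well in RPMI-1640 with 10% FBS, treated 48 h at 37 °C with a 10-point dilution series topping at 1 μM. Viability read by CellTiter-Glo ATP luminescence; mean IC50 reported.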
# [2] = molecular target: recombinant human Bcl-2-G101V protein (Homo sapiens (Human), UniProt P10415, G101V); experiment: Bcl-2-G101V TR-FRET Assay; type: binding; conditions: Bcl-2 G101V mutant, TR-FRET; read-out: Biochemical assay (IC50, nM) Bcl-2 G101V
# Procedure, shortened: (§1)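 Measures how compounds block Bcl-2-G101V engaging its ligand, by TR-FRET with 337 nm excitation and a 490/520 nm emission ratio; dose-response data give IC50 via a four-parameter logistic model.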
# [3] = test system: recombinant human Bcl-2-G101V protein; experiment: Bcl-2-G101V TR-FRET Assay; type: binding; conditions: ratio of biochemical IC50 Bcl-2 G101V / Bcl-2 WT
# Procedure, shortened: as §1
# [4] = test system: BCL-2 G101V knock-in cell line H96 (derive from RS4;11); experiment: Bcl 2-G101V Knock-In RS4;11 Cell Proliferation Assay; type: cell-based; conditions: Homo sapiens, RS4;11 Bcl-2 G101V knock-in clone H96, 48 hrs, CellTiter-GLO, read-out: Cellular proliferation assay (IC50, nM) RS4
# Procedure, shortened: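 H96, a CRISPR-generated RS4;11 clone carrying BCL2-G101V knock-in (WES/RNA-seq validated), seeded 50,000 per well and exposed 48 h at 37 °C to 10-point dilutions topping at 1 or 10 μM. Viability by CellTiter-Glo luminescence; mean IC50.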
# [5] = molecular target: Recombinant human Bcl-2 protein (Homo sapiens (Human), UniProt P10415); experiment: Bcl-2 TR-FRET Assay; type: binding; conditions: Bcl-2 wild type, TR-FRET; read-out: Biochemical assay (IC50, nM) Bcl-2 WT
# Procedure, shortened: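 0.05 nM recombinant Bcl-2 preincubated 0.5 h at room temperature with 10-point compound dilutions (top final 1, 0.1, 0.02 or 0.01 uM) in pH 7.5 phosphate buffer. FITC-Bak peptide (0.5 nM) and anti-6His Tb cryptate then added for 1 h. TR-FRET read; IC50 from four-parameter logistic fit.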
SMILES,IC50 [1],IC50 [2],Ratio of Bcl-2 G101V/WT [3],IC50 [4],IC50 [5]
"CC(C)c1ccccc1C1CN(Cc2cccc3c2OC(C)(C)O3)CCN1C1CC2(CCN(c3ccc(C(=O)NS(=O)(=O)c4ccc(NC[C@H]5CC[C@](C)(O)CC5)c([N+](=O)[O-])c4)c(Oc4cnc5[nH]ccc5c4)c3)CC2)C1 (stereo partly drawn) [Example 201, 2-((1H-pyrrolo[2,3-b]pyridin-5-yl)oxy)-4-(2-(4-((2,2-dimethylbenzo [d][1,3]dioxol-4-yl)methyl)-2-(2-isopropylphenyl)piperazin-1-yl)-7-azaspiro[3.5]nonan-7-yl)-N-((4-((((1r,4r)-4-hydroxy-4-methylcyclohexyl)methyl)amino)-3-nitrophenyl)sulfonyl)benzamide]",0.74 nM,1.1 nM,3.9,6.2 nM,0.28 nM
"COc1ccc(CN2CCN(C3CC4(CCN(c5ccc(C(=O)NS(=O)(=O)c6ccc(NC[C@H]7CC[C@](C)(O)CC7)c([N+](=O)[O-])c6)c(Oc6cnc7[nH]ccc7c6)c5)CC4)C3)C(c3ccccc3C(C)C)C2)cc1C(C)=O (stereo partly drawn) [Example 212, 2-((1H-pyrrolo[2,3-b]pyridin-5-yl)oxy)-4-(2-(4-(3-acetyl-4-methoxybenzyl)-2-(2-isopropylphenyl)piperazin-1-yl)-7-azaspiro[3.5]nonan-7-yl)-N-((4-((((1r,4r)-4-hydroxy-4-methylcyclohexyl)methyl)amino)-3-nitrophenyl)sulfonyl)benzamide]",0.3 nM,0.54 nM,4.2,2.15 nM,0.13 nM
"CC(C)c1ccccc1C1CN(Cc2cccc3occc23)CCN1C1CC2(CCN(c3ccc(C(=O)NS(=O)(=O)c4ccc(NC[C@H]5CC[C@](C)(O)CC5)c([N+](=O)[O-])c4)c(Oc4cnc5[nH]ccc5c4)c3)CC2)C1 (stereo partly drawn) [Example 213, 2-((1H-pyrrolo[2,3-b]pyridin-5-yl)oxy)-4-(2-(4-(benzofuran-4-ylmethyl)-2-(2-isopropylphenyl)piperazin-1-yl)-7-azaspiro[3.5]nonan-7-yl)-N-((4-((((1r,4r)-4-hydroxy-4-methylcyclohexyl)methyl)amino)-3-nitrophenyl)sulfonyl)benzamide]",0.32 nM,2.6 nM,3.7,5.2 nM,0.7 nM
"CC(C)c1ccccc1C1CN(Cc2cccc3c2N(C)C(=O)CO3)CCN1C1CC2(CCN(c3ccc(C(=O)NS(=O)(=O)c4ccc(NC[C@H]5CC[C@](C)(O)CC5)c([N+](=O)[O-])c4)c(Oc4cnc5[nH]ccc5c4)c3)CC2)C1 (stereo partly drawn) [Example 216, 2-((1H-pyrrolo[2,3-b]pyridin-5-yl)oxy)-N-((4-((((1r,4r)-4-hydroxy-4-methylcyclohexyl)methyl)amino)-3-nitrophenyl)sulfonyl)-4-(2-(2-(2-isopropylphenyl)-4-((4-methyl-3-oxo-3,4-dihydro-2H-benzo[b] [1,4]oxazin-5-yl)methyl)piperazin-1-yl)-7-azaspiro[3.5]nonan-7-yl) benzamide]",0.33 nM,0.81 nM,4.2,2.76 nM,0.19 nM
COc1ccc(CN2CCN(C3CC4(CCN(c5ccc(C(=O)NS(=O)(=O)c6cc7c(c([N+](=O)[O-])c6)N[C@H](C[C@H]6CC[C@H](O)CC6)CO7)c(Oc6cnc7[nH]ccc7c6)c5)CC4)C3)[C@H](c3ccccc3C(C)C)C2)cc1 [Example 221],0.16 nM,0.27 nM,3.4,0.92 nM,0.08 nM
"COc1cc(CN2CCN(C3CC4(C3)CN(c3ccc(C(=O)NS(=O)(=O)c5ccc(NC[C@H]6CC[C@](C)(O)CC6)c([N+](=O)[O-])c5)c(Oc5cnc6[nH]ccc6c5)c3)C4)[C@H](c3ccccc3C(C)C)C2)cc(C)c1OC [Example 234, 2-((1H-pyrrolo[2,3-b]pyridin-5-yl)oxy)-4-(6-((R)-4-(3,4-dimethoxy-5-methylbenzyl)-2-(2-isopropylphenyl)piperazin-1-yl)-2-azaspiro[3.3]heptan-2-yl)-N-((4-((((1r,4r)-4-hydroxy-4-methylcyclohexyl)methyl)amino)-3-nitrophenyl)sulfonyl)benzamide]",0.09 nM,0.32 nM,3.7,0.35 nM,0.087 nM
COc1ccc(CN2CCN(C3CC4(CCN(c5ccc(C(=O)NS(=O)(=O)c6ccc(NC[C@H]7CC[C@](C)(O)CC7)c([N+](=O)[O-])c6)c(Oc6cnc7[nH]ccc7c6)c5)CC4)C3)C(c3cc(F)ccc3C(C)C)C2)cc1 (stereo partly drawn) [Example 235],0.27 nM,1.1 nM,3.8,1.21 nM,0.28 nM
"CC(C)c1ccccc1[C@@H]1CN(Cc2ccc(F)c(F)c2)CCN1C1CC2(C1)CN(c1ccc(C(=O)NS(=O)(=O)c3ccc(NC[C@H]4CC[C@](C)(O)CC4)c([N+](=O)[O-])c3)c(Oc3cnc4[nH]ccc4c3)c1)C2 [Example 244, 2-((1H-pyrrolo[2,3-b]pyridin-5-yl)oxy)-4-(6-((R)-4-(3,4-difluorobenzyl)-2-(2-isopropylphenyl)piperazin-1-yl)-2-azaspiro[3.3]heptan-2-yl)-N-((4-((((1r,4r)-4-hydroxy-4-methylcyclohexyl)methyl)amino)-3-nitrophenyl)sulfonyl)benzamide]",0.2 nM,0.83 nM,3.3,1.36 nM,0.25 nM
"COc1cc(CN2CCN(C3CC4(C3)CN(c3ccc(C(=O)NS(=O)(=O)c5ccc(NC[C@H]6CC[C@](C)(O)CC6)c([N+](=O)[O-])c5)c(Oc5cnc6[nH]ccc6c5)c3)C4)[C@H](c3ccccc3C(C)C)C2)cc(F)c1OC [Example 245, 2-((1H-pyrrolo[2,3-b]pyridin-5-yl)oxy)-4-(6-((R)-4-(3-fluoro-4,5-dimethoxybenzyl)-2-(2-isopropylphenyl)piperazin-1-yl)-2-azaspiro[3.3]heptan-2-yl)-N-((4-((((1r,4r)-4-hydroxy-4-methylcyclohexyl)methyl)amino)-3-nitrophenyl)sulfonyl)benzamide]",0.15 nM,0.32 nM,2.5,0.53 nM,0.13 nM
"[2H]C([2H])([2H])Oc1ccc(CN2CCN(C3CC4(CCN(c5ccc(C(=O)NS(=O)(=O)c6ccc(NC[C@H]7CC[C@](C)(O)CC7)c([N+](=O)[O-])c6)c(Oc6cnc7[nH]cc(Cl)c7c6)c5)CC4)C3)[C@H](c3ccccc3C(C)C)C2)cc1OC([2H])([2H])[2H] [Example 250, 4-(2-((R)-4-(3,4-bis(methoxy-d3)benzyl)-2-(2-isopropylphenyl)piperazin-1-yl)-7-azaspiro[3.5]nonan-7-yl)-2-((3-chloro-1H-pyrrolo[2,3-b]pyridin-5-yl)oxy)-N-((4-((((1r,4r)-4-hydroxy-4-methylcyclohexyl)methyl)amino)-3-nitrophenyl)sulfonyl)benzamide]",0.16 nM,0.52 nM,5.7,1.06 nM,0.09 nM
"COc1cc(CN2CCN(C3CC4(CCN(c5ccc(C(=O)NS(=O)(=O)c6ccc(NC[C@H]7CC[C@](C)(O)CC7)c([N+](=O)[O-])c6)c(Oc6cnc7[nH]cc(Cl)c7c6)c5)CC4)C3)[C@H](c3ccccc3C(C)C)C2)ccc1C1CC1 [Example 252, 2-((3-chloro-1H-pyrrolo[2,3-b]pyridin-5-yl)oxy)-4-(2-((R)-4-(4-cyclopropyl-3-methoxybenzyl)-2-(2-isopropylphenyl)piperazin-1-yl)-7-azaspiro[3.5]nonan-7-yl)-N-((4-((((1r,4r)-4-hydroxy-4-methylcyclohexyl)methyl)amino)-3-nitrophenyl)sulfonyl)benzamide]",0.26 nM,3.5 nM,2.8,2.6 nM,1.2 nM
"[2H]C([2H])([2H])Oc1ccc(CN2CCN(C3CC4(CCN(c5ccc(C(=O)NS(=O)(=O)c6ccc(NC[C@H]7CC[C@](C)(O)CC7)c([N+](=O)[O-])c6)c(Oc6cnc7[nH]ccc7c6)c5)CC4)C3)[C@H](c3ccccc3C(C)C)C2)cc1OC([2H])([2H])[2H] [Example 253, 2-((1H-pyrrolo[2,3-b]pyridin-5-yl)oxy)-4-(2-((R)-4-(3,4-bis(methoxy-d3)benzyl)-2-(2-isopropylphenyl)piperazin-1-yl)-7-azaspiro[3.5]nonan-7-yl)-N-((4-((((1r,4r)-4-hydroxy-4-methylcyclohexyl)methyl)amino)-3-nitrophenyl)sulfonyl)benzamide]",0.11 nM,0.089 nM,3.3,0.29 nM,0.027 nM
